Test results from US10363261B2, “Enolase inhibitors and methods of treatment therewith” (Board of Regents, The University of Texas System, priority 2015, dated 2019).

Tests used:
enolase (ENO1 and ENO2) = test: Enolase inhibitory activity in vitro, isoform not distinguished (ENO1 and ENO2); type: biochemical, human; conditions: isolated enzymatic assay
Method: (§1) Human ENO1 and ENO2 were overexpressed in the human D423 cell line and used for enzymatic assays. Inhibitors (PhAH, SF2312 and Deoxy-SF2312, Hex, Hepta, Pom-Hex, and Fosmidomycin) were incubated with the enzyme prior to addition of 5 mM 2-PG substrate. Enzymatic activity was measured by monitoring fluorescence of NADH at 340 nm Exitation/460 nm emission using an Lactate dehydrogenase/Pyruvate kinase linked assay which links the formation of PEP to the oxidation of NADH to NAD+, as we have described in published work (Muller et al., 2012). Enzymatic activity was normalized to that in the absence of the inhibitor (set to 1) and plotted as function of inhibitor concentration.
(§2) Enolase activity was measured using two different methods, either by a fluorometric NADH-linked assay or a direct spectrophotometric assay via formation of PEP. In the fluorescent assay, enolase activity was measured via NADH oxidation in a pyruvate kinase-lactate dehydrogenase coupled assay as previously described (Muller, et al., 2012). The assay is conducted in 10 mM KCl, 5 mM MgSO4, 100 mM triethanolamine at pH 7.4, with 400 μM NADH and 2 mM ADP. 2-Phosphoglycerate (2-PGA), pyruvate kinase (PK) and lactate dehydrogenase (LDH) are provided in excess, with conversion of 2-PGA to PEP by enolase being rate limiting. PEP (with ADP) is substrate of PK; pyruvate formed by this reaction is linked to NADH oxidation by LDH. Enolase activity is determined by measuring oxidation of NADH fluorescently by excitation at 340 nm and emission at 460 nm. The substrate concentration, if not otherwise indicated, was 5 mM 2-PGA. Fluorescence was measured using Omega Fluorescence Plate Reader (BMG Labtech). Alternatively, Enolase activity was measured directly by the appearance of PEP from 2-PGA via absorption at 240 nm (Marangos, et al., 1978). The assay medium was the same, except that all the auxiliary reagents (PK/LDH, NADH, ADP) are omitted. Both assays were conducted in a 96-well plated format with the direct assay performed in UV-transmissible plates.

human ENO1 = human ENO1 (Homo sapiens, UniProt P06733); test: Enolase enzymatic activity, NADH-linked pyruvate kinase/lactate dehydrogenase fluorescence assay, ENO1
Sequence of human ENO1 (P06733 whole entry): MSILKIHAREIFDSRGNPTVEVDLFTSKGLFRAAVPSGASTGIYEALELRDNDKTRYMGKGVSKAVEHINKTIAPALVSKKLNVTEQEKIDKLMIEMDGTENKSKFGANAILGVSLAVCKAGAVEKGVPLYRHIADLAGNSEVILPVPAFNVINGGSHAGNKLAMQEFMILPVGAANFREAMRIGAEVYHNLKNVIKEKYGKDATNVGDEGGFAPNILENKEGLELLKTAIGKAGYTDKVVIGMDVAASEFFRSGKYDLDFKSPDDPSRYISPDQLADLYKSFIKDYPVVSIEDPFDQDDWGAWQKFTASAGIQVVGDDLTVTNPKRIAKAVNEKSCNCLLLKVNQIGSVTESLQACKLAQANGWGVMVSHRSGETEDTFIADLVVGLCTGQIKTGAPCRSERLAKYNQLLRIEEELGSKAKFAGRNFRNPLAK
Method: as §1, §2

[1] = test system: lactate/glucose in D423 ENO1-rescued glioma cells; test: 13C-NMR tracing of uniformly labeled 13C-glucose to 13C-lactate, rescued cells; conditions: even at 200 μM
Method: Glucose labeled with heavy, non-radioactive, ^13C at carbon C-1 and ^13C at all carbon atoms were purchased from Cambridge Isotopes (CLM-420-1 and CLM-1396, respectively). Glucose free DMEM media was supplemented with 10 mM ^13C-1 or ^13C-all labeled Glucose. NMR metabolic tracing was performed by substituting conventional DMEM medium with glucose free DMEM medium, to which ^13C-1 glucose (Cambridge Isotopes) was supplemented at 10 mM. […] After 4 days, conditioned media was extracted with 80% methanol at −80° C., lyophilized and resuspended in D2O. Proton-decoupled ^13C NMR spectra were acquired using a 500 MHZ Bruker instrument in the M. D. Anderson NMR core facility.

ENO1-intact glioma cells = test: Toxicity to ENO1-intact glioma cells during 13C-1 glucose tracing; type: cell-based, human; conditions: 10 μM, four days
Method: ^13C-1 glucose tracing by NMR treatment was performed with a concentration of SF2312 (10 μM) that is non-toxic to ENO1-intact glioma cells for four days, led to profound inhibition of glucose consumption (isomeric peaks at 97 and 93 ppm) and lactate production (single peak at 20 ppm) in the media of D423 and Gli56 ENO1 deleted but not ENO1-intact glioma cells (FIG. 33). At the same time, a single peak at 64 ppm became visible in the D423 and Gli56 ENO1-deleted cells treated with SF2312. The most likely origin of this peak is the C-3 atom glycerate, which has a reported ^13C peak of 64 ppm (Spectral Database of Organic Compounds, SDBS No. 18695) and is the atom on which the ^13C label derived from the C-1 atom on glucose is expected. […] Glycerate likely forms in response to enolase inhibition as 2-PGA or 3-PGA accumulate and (the substrates of the enzyme) spontaneously hydrolyze, or alternatively, are dephosphorylated by the action of glycerate kinase (GLYCTK, FIG. 41). These experiments were repeated with D423 ENO1-deleted and isogenic ENO1-rescued control glioma cells with both PhAH and SF2312 (FIGS. 32C & 32D). […] This effect is especially noticeable when expressed as a ratio of ^13C-glycerate to ^13C-lactate, metabolites upstream and downstream of the enolase reaction, respectively (FIG. 32D). […]

In the case of `O=C1C(P(=O)(O)O)CC(O)N1O` (racemic) [SF2312, 3-dihydroxyphosphoryl-1,5-dihydroxy-2-pyrrolidone], the “IC50 lower than that of PhAH” value (enolase (ENO1 and ENO2)) is reported as “about 50%”, the IC50 (human ENO1) is reported as roughly 20 nM and the “effect on lactate/glucose in ENO1-rescued cells” value [1] is reported as “neither PhAH nor SF2312 decreased lactate/glucose”. The “toxicity to ENO1-intact glioma cells” value (ENO1-intact glioma cells) was “non-toxic”.
